Experimental data: patent US20070116781A1, “Hydrogen Cyanamide Pesticide Formulations” (priority 2005, published 2007)

How the values were obtained:
sicklepod = experiment: Herbicidal activity, cyanamide and citric acid, pre-emergence, covered pots; assay type: in vivo, Senna obtusifolia; settings: C6H8O7 150 mg/kg soil
Method: (§1) The weeds used in these tests were grown from a standard weed seed pack of common annual and perennial weeds representing an extreme weed situation. The weeds included crabgrass (Digitaria sanguinalis), yellow nutsedge (Cyperus esculentus), […] (Ipomoea spp.), pigweed (Amaranthus spp.), and other annual weeds. Observations of the effects on the weed population as a whole were made, and individual observations were made for crabgrass, yellow nutsedge, sicklepod, morningglory, and pigweed. Stock solutions of hydrogen cyanamide at 1.25% by weight and citric acid at 5.0% by weight, both in water, were prepared, the hydrogen cyanamide from a phosphate-buffered 50% aqueous solution. […] Data analyses were performed in the same manner as Example 1. The results expressed in weeds per pot are listed in Table XIV for all weeds, Table XV for crabgrass, Table XVI for yellow nutsedge, Table XVII for sicklepod, Table XVIII for morningglory, and Table XIX for pigweed, all at various application rates for hydrogen cyanamide, with and without citric acid.

yellow nutsedge = experiment: as above; assay type: in vivo, Cyperus esculentus; settings: C6H8O7 150 mg/kg soil
Method: as §1

morningglory = experiment: as above; assay type: in vivo, Ipomoea spp.; settings: C6H8O7 150 mg/kg soil
Method: as §1

combined weed species = experiment: as above; assay type: in vivo; settings: C6H8O7 150 mg/kg soil
Method: as §1

crabgrass = experiment: as above; assay type: in vivo, Digitaria sanguinalis; settings: C6H8O7 150 mg/kg soil
Method: as §1

weed combination = experiment: Herbicidal activity of citric acid alone, pre-emergence, covered pots; assay type: in vivo
Method: The weeds used in these tests were the same as those used in Example 4, and observations were made of the effects on individual weeds as well as the weed population as a whole.
A stock solution of citric acid was made in the manner described in Example 4, and all other test parameters were likewise the same as in Example 4. Weed counts were taken from the various pots at intervals of 7, 12, and 28 days after application of the citric acid, and data analyses were performed in the same manner as Example 1.

What does the source list for `O=C(O)CC(O)(CC(=O)O)C(=O)O` [C6H8O7, 2-hydroxy-1,2,3-propanetricarboxylic acid]?
Weeds Per Pot: Sicklepod (sicklepod; 13 d after treatment): 4.6; Weeds Per Pot: Sicklepod (sicklepod; 19 d after treatment): 5.6; Weeds Per Pot: Sicklepod (sicklepod; 26 d after treatment): 5.3; Weeds Per Pot: Yellow Nutsedge (yellow nutsedge; 13 d after treatment): 0.7; Weeds Per Pot: Yellow Nutsedge (yellow nutsedge; 19 d after treatment): 0.9; Weeds Per Pot: Yellow Nutsedge (yellow nutsedge; 26 d after treatment): 0.9; Weeds Per Pot: Morningglory (morningglory; 13 d after treatment): 1.1; Weeds Per Pot: Morningglory (morningglory; 19 d after treatment): 0.9; Weeds Per Pot: Morningglory (morningglory; 26 d after treatment): 5.3; Weeds Per Pot (combined weed species) (combined weed species; 9 d after treatment): 10.6; Weeds Per Pot (combined weed species) (combined weed species; 13 d after treatment): 15.0; Weeds Per Pot (combined weed species) (combined weed species; 19 d after treatment): 16.5; Weeds Per Pot (combined weed species) (combined weed species; 26 d after treatment): 16.0; Weeds Per Pot: Crabgrass (crabgrass; 9 d after treatment): 4.6; Weeds Per Pot: Crabgrass (crabgrass; 13 d after treatment): 8.6; Weeds Per Pot: Crabgrass (crabgrass; 19 d after treatment): 9.3; Weeds Per Pot: Crabgrass (crabgrass; 26 d after treatment): 8.1; Weeds Per Pot (weed combination) (weed combination; 7 d after treatment, citric acid 50 mg/kg soil): 16.6; Weeds Per Pot (weed combination) (weed combination; 7 d after treatment, citric acid 100 mg/kg soil): 11.1; Weeds Per Pot (weed combination) (weed combination; 7 d after treatment, citric acid 150 mg/kg soil): 14.0; Weeds Per Pot (weed combination) (weed combination; 7 d after treatment, citric acid 200 mg/kg soil): 12.2; Weeds Per Pot (weed combination) (weed combination; 7 d after treatment, citric acid 250 mg/kg soil): 11.5; Weeds Per Pot (weed combination) (weed combination; 12 d after treatment, citric acid 50 mg/kg soil): 29.8; Weeds Per Pot (weed combination) (weed combination; 12 d after treatment, citric acid 100 mg/kg soil): 25.5; Weeds Per Pot (weed combination) (weed combination; 12 d after treatment, citric acid 200 mg/kg soil): 20.6; Weeds Per Pot (weed combination) (weed combination; 28 d after treatment, citric acid 50 mg/kg soil): 28.0; Herbicidal activity of citric acid (weed combination; pre-emergence, covered pots): negligible except at extremely high application rates
